Reference: PubChem BioAssay AID504726 (Broad Institute, 2011)
Calls of active or inactive are those of the source.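 How the source made its calls: active means fitted half-maximal concentration for a cytotoxic signal drop no higher than ten times the top valid dose tested; inconclusive means flat curve between -70 and -30 percent, or an unreliable fit; inactive means flat within 30 percent, signal rise, or potency beyond limit.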

Assay: viability loss in HeLa cells – cell-based, 24 h, cherry-picked samples, cytotoxicity control, dose response (AID 504726);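 further: 0% = DMSO neutral controls and -100% = mitoxantrone positive controls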
Conditions: HeLa viability, CellTiter-Glo ATP luminescence, 24 h; at 35 µM (top of the series)

SMILES | activity change, negative = cytotoxicity
O=C(Cn1c2ccccc2c2nc3n(c(=O)c21)CCS3)Nc1ccccc1C(F)(F)F | -2.68% (inactive)
O=C(CN1C(=O)/C(=C/c2ccco2)SC1=S)Nc1ccc(C(=O)O)c(O)c1 | -0.625% (inactive)
COCCN(C(=O)CN1CCCc2ccccc21)c1c(N)n(Cc2ccccc2)c(=O)[nH]c1=O | 3.65% (inactive)
CCN(CC(=O)Nc1c(F)cccc1F)C(=O)CCCc1cccs1 | -23.5% (inactive)
COc1cc(O)c(C(C)=O)c(CC(=O)O)c1 | -0.718% (inactive)
CN(N=Nc1ccc([N+](=O)[O-])cc1)c1ccccc1 | -18.3% (inactive)
CCCCN(C(=O)C(C)Oc1ccc(Br)cc1)c1c(N)n(CC(C)C)c(=O)[nH]c1=O (centres undefined) | 3.21% (inactive)
Cn1c(Cl)c(C(=O)Nc2ccc(Cl)cc2)c2ccccc21 | -6.51% (inactive)
CN(c1ccccc1)S(=O)(=O)c1cccc(NS(=O)(=O)c2cccc(C(=O)O)c2)c1 | 3.74% (inactive)
CCCc1cc(=O)oc2cc(C)cc(OCC(=O)O)c12 | -7.49% (inactive)
Nc1c(/C=C2/C=CC(=O)C(O)=C2)c(=O)nc2sc(CC(=O)N3CCCC3)nn12 | -5.49% (inactive)
Cc1ccc(C(CC(=O)N2CCCCC2)c2ccccc2)c(O)c1C (centres undefined) | -3.99% (inactive)
CCOC(=O)CCCn1c(C)nc(=O)c(-c2ccccc2)c1C | 4.75% (inactive)
CCCCn1c(=O)[nH]c2nc3cc(N)ccc3nc2c1=O | -9.99% (inactive)
Cc1cc(/C=C2\C(=O)NC(=O)N(Cc3ccccc3)C2=O)c(C)n1-c1ccc(Cl)c(C(=O)O)c1 | 1.64% (inactive)
O=C(/C=C\c1ccccc1)Oc1cccc2cccnc12 | -9.78% (inactive)
CCN(CC(=O)Nc1ccc(OC)cc1)C(=O)c1cc([N+](=O)[O-])ccc1N1CCOCC1 | -3.5% (inactive)
Cc1ccc2cccc(OCC(=O)NCCC3=CCCCC3)c2n1 | -6.65% (inactive)
CC(=O)N(C(C)=O)N1C(=O)c2cccc3c(N4CCOCC4)ccc(c23)C1=O | -2.78% (inactive)
Cc1cc(C(F)(F)F)c2c(N)c(C(=O)Nc3cc(C)on3)sc2n1 | -0.48% (inactive)
N=C1/C(=C/c2ccc(-c3cccc(C(=O)O)c3)o2)C(=O)N=C2SC(CC(=O)N3CCOCC3)=NN12 | -4.55% (inactive)

SMILES | activity change, negative = cytotoxicity
CCOC(=O)c1sc(NC(=O)CSC(=S)N2CCN(C)CC2)nc1C | -7.44% (inactive)
O=C(/C=N/NC(=O)c1ccc(Cl)cc1Cl)c1ccccc1 | 1.59% (inactive)
COc1cccc(/C=N/NC(=O)C(=O)NCc2cccnc2)c1O | -7.2% (inactive)
COc1cc(C(=S)N2CCN(c3cccc(Cl)c3)CC2)ccc1O | 9.69% (inactive)
O=C(O)c1cccc(-n2cccc2/C=C/[N+](=O)[O-])c1 | -0.655% (inactive)
CCNc1nc(NC(C)C)nc(NS(=O)(=O)c2ccc(N)cc2)n1 | -6.72% (inactive)
O=C(O)C1Nc2c(O)cc(Cl)c([N+](=O)[O-])c2C2C=CCC12 (centres undefined) | -21.5% (inactive)
Nc1cccc2cc(S(=O)(=O)O)ccc12 | 5.33% (inactive)
Cc1cc2nc3c(=O)n(C4CCCCC4)c(=O)[nH]c3nc2cc1N | 4.62% (inactive)
Cc1ccc(OCC(=O)NC(=S)Nc2cccc(NC(=O)c3ccc(Cl)cc3Cl)c2)cc1 | -4.71% (inactive)
O=C(CCN1C(=O)/C(=C\c2ccco2)SC1=S)Nc1ccc(C(=O)O)c(O)c1 | 4.66% (inactive)
COc1ccc(CCNC(=O)CNC(=O)Cn2ccc3ccccc3c2=O)cc1OC | 2.19% (inactive)
Cc1ccc(C(=O)c2coc3ccc(O)c(Cl)c23)cc1 | -2.67% (inactive)
O=C(Cn1ncc(N2CCCC2)c(Cl)c1=O)c1ccc(Cl)cc1 | 7.35% (inactive)
CC(=O)Oc1ccc2c(c1)Oc1cc(OC(C)=O)ccc1C21OC(=O)c2ccccc21 | -1.71% (inactive)
Cc1ccc2c(c1)nnn2C1CCN(C(=O)c2cccs2)CC1 | -7.39% (inactive)
CC(C)CC(=O)Nc1ccc(S(=O)(=O)N2CC3CC(C2)c2cccc(=O)n2C3)cc1 (centres undefined) | 1.91% (inactive)
Nc1ccc2nc3c(=O)n(C4CCCCC4)c(=O)[nH]c3nc2c1 | -0.337% (inactive)
COc1ccc(Cl)cc1C(=O)NNC(=O)c1cc2ccccc2o1 | -3.35% (inactive)
CCn1c(=O)c(C(=O)NCCN2CCCCC2)c(O)c2ccccc21 | 1.6% (inactive)
COC(=O)c1ccccc1NC(=O)CCS(=O)(=O)c1ccc(Br)cc1 | 10.1% (inactive)

SMILES | activity change, negative = cytotoxicity
COc1ccccc1CNC(=O)C(=O)NCC1CCCN1S(=O)(=O)c1cccs1 (centres undefined) | -4.86% (inactive)
O=C(Cn1nc(Cc2ccncc2)c2ccccc2c1=O)N1CCN(C(=O)c2ccco2)CC1 | -4.22% (inactive)
Cc1cccnc1NC1(C(F)(F)F)N=C2SCCN2C1=O (centres undefined) | -2.93% (inactive)
CCCC1(C2CCCC2)NC(=O)NC1=O (centres undefined) | 0.78% (inactive)
CCN(CC(=O)NCc1cccs1)C(=O)c1ccc(S(=O)(=O)Nc2ccccc2C)cc1 | 2.2% (inactive)
CC1Cc2ccccc2N1C(=O)CCS(=O)(=O)c1cccs1 (centres undefined) | -6.91% (inactive)
O=C(Nc1cc(Cl)ccc1-n1cncn1)c1cccs1 | -6.29% (inactive)
CC(C)N(Cc1ccccc1)C(=O)Cn1c(=O)cnc2ccccc21 | 0.817% (inactive)
Cn1cc(/C=C2\C(=O)NC(=O)N(c3ccccc3)C2=O)c2ccccc21 | -26.5% (inactive)
CSC(=NS(=O)(=O)c1ccc(N)cc1)NS(=O)(=O)c1cccs1 | -2.85% (inactive)
O=C(O)/C=C/c1ccccc1Oc1ccccc1 | -8.62% (inactive)
Nc1nc(C(F)(F)F)cc(=O)[nH]1 | -5.29% (inactive)
CCN(CC)c1ccc2cc(S(=O)(=O)c3ccc(Cl)cc3)c(=O)oc2c1 | -13.6% (inactive)
CC(/C=C1\SC(=S)N(CCCC(=O)Nc2ccc(C(=O)O)cc2)C1=O)=C\c1ccccc1 | 3.31% (inactive)
CC(C)(C)OC(=O)C[C@@H]1C/C=C\C[C@H](CC(=O)N(CCO)Cc2ccccc2)C(=O)N[C@@H](c2ccccc2)COC1=O | -9.09% (inactive)
O=C1C(=Cc2ccco2)CCC1=Cc1ccco1 | -6.04% (inactive)
OCCN(CCO)c1nc(N2CCCCC2)c2nc(N(CCO)CCO)nc(N3CCCCC3)c2n1 | -1.48% (inactive)
Cc1cccc(COc2ccc(/C=N/NC(=O)c3nnn(-c4nonc4N)c3COc3ccc(F)cc3)cc2)c1 | -4.08% (inactive)
CCOC(=O)[C@H]1[C@H]2COc3cc(OC)ccc3[C@@H]2N2C(=O)CN(Cc3ccc(OC)cc3)C(=O)[C@@]12C | -9.01% (inactive)
Nc1nc(SCC(=O)N2CCCCC2)[nH]c(=O)c1NC(=O)c1cccs1 | -0.747% (inactive)
O=C(OCc1ccccc1)N1C=CC2CC1c1c(Cl)cccc12 (centres undefined) | -8.44% (inactive)

SMILES | activity change, negative = cytotoxicity
O=C(O)c1ccccc1NC(=O)c1cc(-c2ccccc2)nc2ccccc12 | -2.32% (inactive)
CSc1ccc(/C=N/Nc2cccc(C(=O)O)c2)cc1 | -13% (inactive)
CCOc1ccc2noc3c2c1C(=O)c1ccccc1-3 | -3.75% (inactive)
CN(C)/C=C1\C=C2C(=O)c3ccccc3N2C1=O | -8.99% (inactive)
COc1ccc(OC)c(NC(=O)c2nnn(Cc3ccc(Br)cc3F)c2N)c1 | -9.89% (inactive)
CCOC(=O)c1c(/N=C/c2c(O)n(-c3cccc(C)c3)c(=O)[nH]c2=O)sc2c1CCCC2 | -22.9% (inactive)
CCC(C)[C@H](NC(=O)[C@@H]1Cc2ccccc2CN1)C(=O)Nc1ccc2c(c1)OCO2 (some centres undefined) | -9.19% (inactive)
CN1C(=O)NC(c2ccccc2[N+](=O)[O-])C2=C1CCCC2=O (centres undefined) | -9.55% (inactive)
O=C(O)CC1(CC(=O)NCc2ccncc2)CCCCC1 | -9.28% (inactive)
O=C(O)C1C2C=CC(CC2)C1C(=O)O (centres undefined) | -1.75% (inactive)
O=C(O)C1(c2ccccc2)CCN(S(=O)(=O)c2ccc(Cl)s2)CC1 | -1.76% (inactive)
COc1ccc(NS(=O)(=O)c2ccc(C)c(C(=O)N(C)Cc3ccc(OC)cc3OC)c2)cc1 | -7.58% (inactive)
COc1[nH]c(/N=C/c2ccccc2)c(C#N)c1C#N | -1.43% (inactive)
COc1ccc(C)cc1NC(=O)C(OC(=O)c1cnccn1)c1ccccc1 (centres undefined) | -9.07% (inactive)
O=C(NCc1cccnc1)C(=O)C1C(=O)Nc2ccccc21 (centres undefined) | -6.53% (inactive)
Cc1ccc(S(=O)(=O)Nc2ccc(Br)cc2C(NCC(=O)O)c2ccccc2)cc1 (centres undefined) | 0.422% (inactive)
CC(OC(=O)c1cn(C)c2ccccc12)C(=O)N1CCCC1 (centres undefined) | -9.43% (inactive)
O=C(O)c1[nH]c2ccccc2c1C(c1cc(Cl)cc([N+](=O)[O-])c1O)c1c(C(=O)O)[nH]c2ccccc12 | -6.4% (inactive)
Cn1c(=O)c(NC2CCCCC2)c2c3c(cccc31)C(=O)c1ccccc1-2 | -11.9% (inactive)
O=C(O)CC(C(=O)O)N1C(=O)/C(=C/C=C/c2ccco2)SC1=S (centres undefined) | -8.39% (inactive)
CCc1ccc(C2CC(c3cccc(Cl)c3)n3nc(N)nc3N2)cc1 (centres undefined) | -1.95% (inactive)
